Data on one substance can be found in patent US8987201B2, “Black bear parathyroid hormone and methods of using black bear parathyroid hormone” (Michigan Technological University, priority 2009, dated 2015).

Entries after “also recorded” stand apart in the source; their conditions may differ.

Data set [1] relates to Male Swiss-Webster mice. Briefly: Trabecular bone structure and mineralization in the proximal tibia (micro-computed tomography). In kind it is in vivo, mouse. As to conditions: PTH 1-34 study: 11 wk old mice, 8 weeks, proximal tibia, normalized by body mass. The text has this: (§1) All handling procedures and experiments were approved by the Michigan Technological University Institutional Animal Care and Use Committees. Male Swiss-Webster mice were obtained from a commercial breeder (Harlan, Indianapolis, Ind.). All animals were maintained on a 12-h light/12-h dark cycle, and were permitted free access to water and food containing 0.95% calcium (Purina Rodent Diet #5001).
(§2) In the first experiment, 11 wk old mice received daily (5 days/week) subcutaneous injections of 2.5 nmol/kg PTH 1-34 (hPTH 1-34 or bbPTH 1-34) or acidic saline vehicle (0.15 M NaCl+0.001 N HCl) for 8 weeks (n=10 mice/group). In the second experiment, 12 wk old mice received daily (5 days/week) subcutaneous injections of 2.5 nmol/kg PTH 1-84 (hPTH 1-84 or bbPTH 1-84) or acidic saline vehicle for 8 weeks (n=10 mice/group). All PTH- and vehicle-treated animals received subcutaneous injections of calcein at a dosage of 10 mg/kg on days 12 and 3 before death to label mineralizing bone surfaces. Twenty-four hours following the last treatment injection, mice were sacrificed by carbon dioxide asphyxiation. Right femurs were fixed in 10% neutral buffered formalin. Left femurs were wrapped in 0.15M saline soaked gauze and stored at −20 deg C. Left tibias were stored in 70% ethanol at 4 deg C.
Trabecular bone architecture and mineralization were evaluated in the left proximal tibial metaphysis (0.7 mm distal to the growth plate) using micro-computed tomography. Tibias from experiment 1 were scanned on a μCT35 scanner (Scanco Medical AG, Basserdorf, Switzerland) at 3.5 μm (high) resolution. Tibias from experiment 2 were scanned on a μCT40 scanner (Scanco Medical AG, Basserdorf, Switzerland) at 7 μm (high) resolution. Bones were scanned in 70% ethanol. Trabecular bone volume fraction (BV/TV, %), trabecular number (Tb.N, mm^−1), trabecular thickness (Tb.Th, m), trabecular separation (Tb.Sp, m), trabecular apparent mineral density (App.Mn.Dn, mgHA/cm^3) and trabecular tissue mineral density (Mat.Mn.Dn, mgHA/cm^3) were computed using the manufacturer's software.
(§3) All bone geometrical, architectural, and mineral properties were normalized by body mass to account for potential variation in animal size (31-33). Trabecular bone properties quantified by micro-computed tomography were compared by ANOVA between vehicle, bear, and human PTH-treated mice within each study (PTH 1-34 or PTH 1-84). The microCT parameters were not directly compared between the PTH 1-34 and PTH 1-84 studies because analyses were conducted on different microCT machines. For all other bone properties, all six experimental groups (from both the PTH 1-34 and PTH 1-84 studies) were compared with ANOVA and Fisher's PLSD. A significance of p<0.05 was used for all comparisons.

In a further data set the test system is male mice. As to conditions: Sakai et al. 1999, cited from earlier work.
The next data set deals with rats. As to conditions: Tashjian et al. 2008; cited from earlier work.
A further data set deals with procollagen-1 mRNA. As to conditions: Nasu et al., 1998; cited from earlier work.
For data set [2], the system named is Male Swiss-Webster mice. Nature of the data set: Cortical bone dynamic histomorphometry in the femur (calcein labels). In kind it is in vivo, mouse. As to conditions: femoral midshaft, 2.5 nmol/kg s.c., 8 weeks, SD in parentheses.
Description: as §1, §2
Following the bending test, the left femoral diaphyses were ashed in a furnace to determine mineral content (ash fraction). Right femoral diaphyses were embedded in methyl methacrylate and sectioned with a diamond saw to expose the midshaft cross-section. Images of the midshaft cross-sections were captured using a digital camera (Spot Insight QE, Diagnostic Instruments Inc., Sterling Heights, Mich.), and Scion Image analysis software (Scion Corporation, Frederick, Md.) was used to calculate the periosteal area (Ps.Ar), cortical area (Ct.Ar), and endosteal area (Es.Ar) for each sample. Cortical bone thickness (Ct.Th) was calculated in 0.1 mm increments for each anatomical quadrant and for the entire cross-section using image analysis software (Bioquant Osteo, Nashville, Tenn.). Thin sections from the midshaft of the right femur were ground to a thickness of 50 μm and mounted on glass slides. Images of calcein labels were captured at 100× magnification and periosteal and endosteal mineral apposition rates (Ps.MAR and Es.MAR, respectively) and mineralizing surfaces (Ps.MS/BS and Es.MS/MS) were quantified (Bioquant) for each femur.
as §3

The next data set has as its system MC-3T3 cells. Briefly: Gene expression by real-time PCR in MC-3T3 cells (Example 11). In kind it is cell-based. As to conditions: 100 nM. The method, then:
MC-3T3 cells were incubated in vehicle or 100 nM synthetic bear or human PTH 1-34 for 3 or 6 hours (n=2 or 4). Total RNA was isolated, and cDNA was generated with reverse transcription. Primers for the bone matrix proteins type I collagen and osteocalcin, the pro-apoptotic protein Bax, the anti-apoptotic protein Bcl-2, and the housekeeping genes Gapdh, β-actin, and cyclophillin were designed using PrimerQuest software (Integrated DNA Technologies, Coralville, Iowa). Real-time PCR was performed using the Mx3000P real-time PCR system (Stratagene, LaJolla, Calif.). All samples were measured in duplicate. Gene expression was determined using the relative standard curve method normalized to the geometric mean of the three housekeeping genes (Gapdh, β-actin, and cyclophillin). Apoptosis-related genes were analyzed as the expression ratio of Bax/Bcl-2, since a decrease in this ratio is associated with decreased apoptosis in vitro.

For data set [3], the system named is human fetal osteoblasts (hFOB). Briefly: Serum starvation cell death in human fetal osteoblasts (trypan blue). The class given is cell-based. As to conditions: 100 nM for 1 hour before serum starvation for 24 hours, preliminary studies, p<0.0001. The method, then: All PTH peptides used in the current study attenuated apoptotic signaling induced by serum starvation in vitro (FIG. 19). bbPTH 1-34 reduced apoptotic signaling in pre-osteoblastic cells more than human PTH (FIG. 19). Recently, we found similar results with preliminary studies in human fetal osteoblasts (hFOB). Serum starvation for 24 hours increased cell death in hFOB (confirmed via trypan blue staining), but pretreatment of hFOB cells with 100 nM PTH 1-34 or 1-84 for 1 hour before starvation reduced percent cell death (percentage change in cell death compared to vehicle pretreatment, hPTH 1-34: −18%, bbPTH 1-34: −25%, hPTH 1-84: −17%, bbPTH 1-84: −21%; p<0.0001; data not shown). […] However, although bbPTH 1-84 was less anti-apoptotic than bbPTH 1-34 and hPTH 1-34 in vitro (FIG. 19) it caused the greatest increases in cortical and trabecular bone mass in the in vivo studies (Table 1, Table 2).

In the data set with Male Swiss-Webster mice [1] (2.5 nmol/kg s.c. daily 5 days/week), human PTH 1-34 [hPTH 1-34] came in with a BV/TV of 1.35 %/kg. Also, in the data set with Male Swiss-Webster mice [1] (2.5 nmol/kg s.c.), the “App. Mn. Dn” value was 1783 mgHA/(cm^3*kg), the “Mat. Mn. Dn.” value is given as 31281 mgHA/(cm^3*kg), the “Tb. N” value is 105.0 1/mm*kg and the “Tb. Sp” value is 9.57 mm/kg. Moreover, the “Tb. Th” value with Male Swiss-Webster mice [1] (2.5 nmol/kg s.c.) is reported as 1.05 mm/kg. For the same substance, the “trabecular thickness (Tb.Th) or mineral apposition rates (MAR) in the proximal tibia” value in the data set on male mice (daily injections of 1 nmol/kg for 6 weeks) is “did not affect”. Moreover, the “trabecular thickness (Tb.Th) and mineral apposition rates (MAR) in the proximal tibia” value with male mice (higher molar dosage (˜10 nmol/kg)) is “increased”. The “dose shown to be carcinogenic in rats” value in the data set with rats is 5 µg/kg. In the data set on procollagen-1 mRNA, the “production of procollagen-1 mRNA” value is “down-regulates”. In the data set on Male Swiss-Webster mice [2], the “Endosteal MAR” value is reported as 0.56 (0.18), the “Endosteal MS/BS” value is given as 39.3 (17.7), the “Periosteal MAR” value is listed as 0.53 (0.21) and the “Periosteal MS/BS” value was 24.0 (13.8). The “expression ratio of Bax/Bcl-2” value with MC-3T3 cells (3 hours, n=4, bear vs human p=0.047) was “increases”. Besides, the “expression of type I collagen compared to the vehicle control” value in the data set on MC-3T3 cells (6 hours) is listed as “did not affect”. The “expression of osteocalcin compared to the vehicle control” value with MC-3T3 cells (6 hours, n=2) was “substantially upregulated; also recorded: upregulate”. The “percentage change in cell death compared to vehicle pretreatment” value in data set [3] is recorded as −18%.
